Assay results from US20170095504A1, “Inhibitors of Kidney Stone Formation and Calcium Deposition” (priority 2015, published 2017).

Key:
[1] = Effect of inhibitors on crystal morphology (COM/COD/COT); details: 100 mg/L; 1 hr after start of reaction; control yields COM
[2] = Calcium binding (free Ca in solution before oxalate addition); type: physicochemical; details: inhibitor 100 mg/L; ~1.0 mM if no Ca binding occurs; control 1.02 mM
Procedure: Calcium binding was determined before oxalate addition. Crystals were obtained after the end of the kinetic experiments (1 hour), filtered, dried and tested by FTIR. The major polymorph was reported; other phases may be present but their peaks were not distinguishable in IR. Initial calcium and oxalate concentrations was the same, approximately 1 mM in pH buffered medium containing 10 mM HEPES and 150 mM NaCl. […] The data are Ca recordings obtained from solutions containing the inhibitor (100 mg/L) and calcium. The Ca ion concentration should be ˜1.0 mM if no Ca binding occurs. This could be related to the type of adsorption on the crystals as reported in a later section. Some of our proposed KSIs are showing significant Ca binding activity, and these are likely to be the best candidates as inhibitors.

Ca2+ concentration in the presence of inhibitors at 100 mg/L (PPM) [2]: 0.71 mM
SMILES: O=C(O)CN(CCN(CC(=O)O)CC(=O)O)CCN(CC(=O)O)CC(=O)O [DTPA, diethylenetriaminepentaacetic acid]
crystal phase obtained (COM, COD or COT) [1]: COT
